Results: patent US20040224958A1, “Pyridopyrimidinone derivatives for treatment of neurodegenerative disease” (priority 2000, published 2004)
Like-named read-outs stand apart in the source and are kept apart here.

How the values were obtained:
cdk4/D = cdk4/D (Homo sapiens, UniProt P11802); assay: Cyclin-Dependent Kinase 4 (cdk4) Assay; format: biochemical; conditions: read-out: cdk4/D IC50
Cdk5/p25 = Cdk5/p25 (Homo sapiens, UniProt Q00535); assay: Cyclin-Dependent Kinase 5 High Throughput Screening (cdk5-HTS) Assay; format: biochemical; conditions: high throughput screen
Outline: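 Cdk5/p25 (1.0 μg/mL) phosphorylates GST-RbCOOH (20 μg/mL) in 50 mM Tris pH 7.4 with 10 mM MgCl2 and 20 μM ATP spiked with [γ33P]ATP, 30 min at room temperature. After EDTA stop, substrate captured on glutathione-coated plates; 33P incorporation counted by scintillation; IC50 determined.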

cdc2/cyclinB = cdc2/cyclinB (Homo sapiens, UniProt P06493); assay: Cyclin-Dependent Kinase Assay cdc2/cyclinB
cdc2/cyclinB, sequence (P06493 whole entry): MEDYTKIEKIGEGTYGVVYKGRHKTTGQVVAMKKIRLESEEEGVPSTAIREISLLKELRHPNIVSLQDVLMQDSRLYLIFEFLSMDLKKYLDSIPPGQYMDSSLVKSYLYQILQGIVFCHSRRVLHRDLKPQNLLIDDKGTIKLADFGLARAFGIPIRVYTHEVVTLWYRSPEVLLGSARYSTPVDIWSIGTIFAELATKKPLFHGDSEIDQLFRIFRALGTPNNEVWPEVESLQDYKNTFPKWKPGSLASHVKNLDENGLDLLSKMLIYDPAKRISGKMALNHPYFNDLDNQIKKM
cdc2/cyclinB, sequence (P14635 whole entry, further chain): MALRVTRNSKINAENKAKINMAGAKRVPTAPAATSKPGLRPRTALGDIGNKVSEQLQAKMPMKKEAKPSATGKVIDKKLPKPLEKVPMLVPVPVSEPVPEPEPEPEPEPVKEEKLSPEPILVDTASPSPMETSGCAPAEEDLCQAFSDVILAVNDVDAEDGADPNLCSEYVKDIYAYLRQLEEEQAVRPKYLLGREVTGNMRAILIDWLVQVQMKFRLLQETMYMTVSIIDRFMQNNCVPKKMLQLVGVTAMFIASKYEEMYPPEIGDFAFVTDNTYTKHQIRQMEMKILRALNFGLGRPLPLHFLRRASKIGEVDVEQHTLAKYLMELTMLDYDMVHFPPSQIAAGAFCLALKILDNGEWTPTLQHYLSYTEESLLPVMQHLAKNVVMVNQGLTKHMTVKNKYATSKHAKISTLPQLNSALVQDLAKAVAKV

cdk2/cyclinA = cdk2/cyclinA (Homo sapiens, UniProt P24941); assay: Cyclin-Dependent Kinase Assay cdk2/cyclinA
cdk2/cyclinE = cdk2/cyclinE (Homo sapiens, UniProt P24941); assay: Cyclin-Dependent Kinase Assay cdk2/cyclinE

cdk4/D, sequence (P11802 whole entry): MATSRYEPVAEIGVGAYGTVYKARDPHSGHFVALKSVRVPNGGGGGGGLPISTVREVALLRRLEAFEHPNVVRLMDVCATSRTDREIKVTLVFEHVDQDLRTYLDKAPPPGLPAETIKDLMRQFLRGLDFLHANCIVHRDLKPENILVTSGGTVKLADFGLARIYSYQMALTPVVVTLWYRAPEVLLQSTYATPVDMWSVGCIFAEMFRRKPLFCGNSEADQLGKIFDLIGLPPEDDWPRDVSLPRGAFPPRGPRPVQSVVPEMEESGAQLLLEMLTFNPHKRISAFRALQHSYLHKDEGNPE
cdk4/D, sequence (P24385 whole entry, further chain): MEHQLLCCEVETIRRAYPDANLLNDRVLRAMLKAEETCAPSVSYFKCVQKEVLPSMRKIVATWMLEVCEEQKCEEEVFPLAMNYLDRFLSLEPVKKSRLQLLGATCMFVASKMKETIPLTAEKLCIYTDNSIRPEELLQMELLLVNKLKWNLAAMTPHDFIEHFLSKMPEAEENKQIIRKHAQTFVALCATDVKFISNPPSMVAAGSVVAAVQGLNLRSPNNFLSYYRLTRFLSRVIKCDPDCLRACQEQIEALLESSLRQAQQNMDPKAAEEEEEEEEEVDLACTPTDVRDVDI

Compound	IC50 (cdk4/D)	IC50 (Cdk5/p25)	IC50 (cdc2/cyclinB)	IC50 (cdk2/cyclinA; cdk2/A IC50)	IC50 (cdk2/cyclinE; cdk2/E IC50)	IC50 (cdc2/cyclinB; read-out: cdk1/B IC50)	IC50 (cdk2/cyclinA; read-out: cdk2/A IC50)	IC50 (cdk2/cyclinE; read-out: cdk2/E IC50)
8-Cyclopentyl-2-(2,4,6-trifluoro-phenylamino)-8H-pyrido[2,3-d]pyrimidin-7-one [Example 473]	510 nM	67 nM				400 nM	330 nM	470 nM
CCCn1c(=O)ccc2cnc(Nc3ccc(F)c(C(F)(F)F)c3)nc21 [Example 335, 2-(4-Fluoro-3-trifluoromethyl-phenylamino)-8-propyl-8H-pyrido[2,3-d]pyrimidin-7-one]	1600 nM	340 nM	250 nM	1100 nM	160 nM			
CCn1c(=O)ccc2cnc(Nc3cc(Cl)c(O)c(Cl)c3)nc21 [Example 291, 2-(3,5-Dichloro-4-hydroxy-phenylamino)-8-ethyl-8H-pyrido[2,3-d]pyrimidin-7-one]	2050 nM	445 nM	440 nM	790 nM	443 nM			
CCC(CC)n1c(=O)ccc2cnc(Nc3cc(Cl)c(O)c(Cl)c3)nc21 [Example 497, 2-(3,5-Dichloro-4-hydroxy-phenylamino)-8-(1-ethyl-propyl)-8H-pyrido[2,3-d]pyrimidin-7-one]	480 nM	55.5 nM	46.5 nM	160 nM	80 nM			
O=C(O)c1cc(Nc2ncc3ccc(=O)n(C4CCCC4)c3n2)ccc1O [Example 560, 5-(8-Cyclopentyl-7-oxo-7,8-dihydro-pyrido[2,3-d]pyrimidin-2-ylamino)-2-hydroxy-benzoic acid]	910 nM	490 nM	450 nM	220 nM	370 nM			
Cc1cc(Nc2ncc3ccc(=O)n(C4CCCC4)c3n2)cc(C)c1O [Example 559, 8-Cyclopentyl-2-(4-hydroxy-3,5-dimethyl-phenylamino)-8H-pyrido[2,3-d]pyrimidin-7-one]	270 nM	94 nM	82 nM	87 nM	91 nM			
O=c1ccc2cnc(Nc3cccc(C(F)(F)F)c3)nc2n1C1CCCC1 [Example 530, 8-Cyclopentyl-2-(3-trifluoromethyl-phenylamino)-8H-pyrido[2,3-d]pyrimidin-7-one]	1700 nM	99 nM	220 nM	250 nM	180 nM			
Cc1cc(Nc2ncc3ccc(=O)n(C4CCCC4)c3n2)ccc1Br [Example 562, 2-(4-Bromo-3-methyl-phenylamino)-8-cyclopentyl-8H-pyrido[2,3-d]pyrimidin-7-one]	160 nM	50 nM	47 nM	56 nM	140 nM			
CCCn1c(=O)ccc2cnc(Nc3ccc4[nH]nnc4c3)nc21 [Example 325, 2-(1H-Benzotriazol-5-ylamino)-8-propyl-8H-pyrido[2,3-d]pyrimidin-7-one]	165 nM	39.5 nM	1440 nM	126 nM	38.7 nM			
Cc1ccc(Nc2ncc3ccc(=O)n(C4CCCC4)c3n2)cc1NS(C)(=O)=O [Example 555, N-[5-(8-Cyclopentyl-7-oxo-7,8-dihydro-pyrido[2,3-d]pyrimidin-2-ylamino)-2-methyl-phenyl]-methanesulfonamide]	69 nM	60 nM	220 nM	160 nM	99 nM			
CCCCn1c(=O)ccc2cnc(Nc3ccccc3)nc21 [Example 364, 8-Butyl-2-phenylamino-8H-pyrido[2,3-d]pyrimidin-7-one]	240 nM	87.5 nM	200 nM	255 nM	60.3 nM			
2-(4-Chloro-3-methyl-phenylamino)-8-isopropyl-8H-pyrido[2,3-d]pyrimidin-7-one [Example 416]	180 nM	38 nM				280 nM	350 nM	220 nM
CCCn1c(=O)ccc2cnc(Nc3cc([N+](=O)[O-])ccc3F)nc21 [Example 333, 2-(2-Fluoro-5-nitro-phenylamino)-8-propyl-8H-pyrido[2,3-d]pyrimidin-7-one]	670 nM	260 nM	1300 nM	1700 nM	340 nM			
CCCn1c(=O)ccc2cnc(Nc3ccc(S(N)(=O)=O)cc3)nc21 [Example 317, 4-(7-Oxo-8-propyl-7,8-dihydro-pyrido[2,3-d]pyrimidin-2-ylamino)-benzenesulfonamide]	978 nM	42.3 nM	88.4 nM	81.7 nM	31.8 nM			

The next lines start with results.

IC50 (cdk4/D)	IC50 (Cdk5/p25)	IC50 (cdc2/cyclinB)	IC50 (cdk2/cyclinA; cdk2/A IC50)	IC50 (cdk2/cyclinE; cdk2/E IC50)	Compound	IC50 (cdc2/cyclinB; read-out: cdk1/B IC50)	IC50 (cdk2/cyclinA; read-out: cdk2/A IC50)	IC50 (cdk2/cyclinE; read-out: cdk2/E IC50)
2400 nM	280 nM	340 nM	760 nM	250 nM	CCC(C)n1c(=O)ccc2cnc(Nc3cc(OC)c(OC)c(OC)c3)nc21 (centres unmarked) [Example 457, 8-sec-Butyl-2-(3,4,5-trimethoxy-phenylamino)-8H-pyrido[2,3-d]pyrimidin-7-one]			
34 nM	14 nM	73 nM	220 nM	67 nM	CCC(CC)n1c(=O)ccc2cnc(Nc3ccc(OC)c(F)c3)nc21 [Example 505, 8-(1-Ethyl-propyl)-2-(3-fluoro-4-methoxy-phenylamino)-8H-pyrido[2,3-d]pyrimidin-7-one]			
760 nM	110 nM	140 nM	360 nM	77 nM	CCCCn1c(=O)ccc2cnc(Nc3ccc(F)c(C)c3)nc21 [Example 392, 8-Butyl-2-(4-fluoro-3-methyl-phenylamino)-8H-pyrido[2,3-d]pyrimidin-7-one]			
100 nM	39 nM	520 nM	460 nM	360 nM	CC(=O)Nc1cc(Nc2ncc3ccc(=O)n(C(C)C)c3n2)ccc1C#N [Example 424, N-[2-Cyano-5-(8-isopropyl-7-oxo-7,8-dihydro-pyrido[2,3-d]pyrimidin-2-ylamino)-phenyl]-acetamide]			
2200 nM	83 nM	39 nM	120 nM	56 nM	CCC(CC)n1c(=O)ccc2cnc(Nc3cccc(O)c3)nc21 [Example 512, 8-(1-Ethyl-propyl)-2-(3-hydroxy-phenylamino)-8H-pyrido[2,3-d]pyrimidin-7-one]			
187 nM	40.8 nM	192 nM	363 nM	136 nM	CCC(CC)n1c(=O)ccc2cnc(Nc3ccc(C#N)cc3)nc21 [Example 484]			
210 nM	41 nM	240 nM	110 nM	140 nM	CCC(C)n1c(=O)ccc2cnc(Nc3ccc(C#N)cc3)nc21 (centres unmarked) [Example 474, 4-(8-sec-Butyl-7-oxo-7,8-dihydro-pyrido[2,3-d]pyrimidin-2-ylamino)-benzonitrile]			
25 nM	8.7 nM	14.5 nM	50.5 nM	12 nM	CCC(CC)n1c(=O)ccc2cnc(Nc3ccc4[nH]c(=O)[nH]c4c3)nc21 [Example 493, 8-(1-Ethyl-propyl)-2-(2-oxo-2,3-dihydro-1H-benzimidazol-5-ylamino)-8H-pyrido[2,3-d]pyrimidin-7-one]			
120 nM	9.8 nM	51 nM	86 nM	41 nM	CCC(CC)n1c(=O)ccc2cnc(Nc3ccc4c(c3)NC(=O)CS4)nc21 [Example 520, 8-(1-Ethyl-propyl)-2-(3-oxo-3,4-dihydro-2H-1,4-benzothiazin-6ylamino)-8H-pyrido[2,3-d]pyrimidin-7-one]			
130 nM	13 nM	190 nM	150 nM	110 nM	Cc1cc(Nc2ncc3ccc(=O)n(C(C)C)c3n2)ccc1F [Example 408, 2-(4-Fluoro-3-methyl-phenylamino)-8-isopropyl-8H1-pyrido[2,3-d]pyrimidin-7-one]			
98 nM	26 nM	190 nM	240 nM	64 nM	CCC(CC)n1c(=O)ccc2cnc(Nc3ccc(F)c(F)c3)nc21 [Example 509, 2-(3,4-Difluoro-phenylamino)-8-(I-ethyl-propyl)-8H-pyrido[2,3-d]pyrimidin-7-one]			
262 nM	21.5 nM	59.5 nM	115 nM	68.3 nM	CCC(C)n1c(=O)ccc2cnc(Nc3ccc(OC)c(OC)c3)nc21 (centres unmarked) [Example 454, 8-sec-Butyl-2-(3,4-dimethoxy-phenylamino)-8H-pyrido[2,3-d]pyrimidin-7-one]			
2240 nM	124 nM	446 nM	1980 nM	494 nM	CCC(CC)n1c(=O)ccc2cnc(Nc3ccc(Br)c(C(F)(F)F)c3)nc21 [Example 488, 2-(4-Bromo-3-trifluoromethyl-phenylamino)-8-(1-ethyl-propyl)-8H-pyrido[2,3-d]pyrimidin-7-one]			
360 nM	300 nM	1100 nM	1600 nM	320 nM	CCC(CC)n1c(=O)ccc2cnc(Nc3ccc(C)c(NC(C)=O)c3)nc21 [Example 522, N-{5-[8-(1-Ethyl-propyl)-7-oxo-7,8-dihydro-pyrido[2,3-d]pyrimidin-2-ylamino]-2-methyl-phenyl}-acetamide]			
